From ChEMBL document CHEMBL4196078, “Polypharmacology in HIV inhibition: can a drug with simultaneous action against two relevant targets be an alternative to combination therapy?” (Eur J Med Chem, 2018)
pEC50, pIC50: −log10 of the molar value. Converted amounts (≈) assume the structure as drawn.

Experiments:
[1] = target: T1, Human immunodeficiency virus type 1 reverse transcriptase (Human immunodeficiency virus 1, UniProt Q72547); assay: Inhibition of HIV1 reverse transcriptase RNase H using RNA-DNA hybrid duplex after 30 mins by FRET-based microplate fluorescence assay
[2] = target: T1, Human immunodeficiency virus type 1 reverse transcriptase; assay: Inhibition of HIV1 reverse transcriptase polymerase p51/p66 after 10 to 20 mins in presence of [3H]-TTP by liquid scintillation counting method
[3] = tested on: Human immunodeficiency virus 1; assay: Antiviral activity against HIV1 3B infected in human MT4 cells; assay type: functional, organism-based; settings: Human immunodeficiency virus 1, 3B
[4] = tested on: Human immunodeficiency virus 1; assay: Antiviral activity against HIV1; assay type: functional, organism-based
[5] = tested on: Human immunodeficiency virus 1; assay: Antiviral activity against HIV1 Lai infected in human MOLT4 cells after 7 days by WST8 assay; assay type: functional, organism-based; settings: Human immunodeficiency virus 1, M:B_Lai, MOLT-4, 168 h
Hepatitis B virus = assay: Antiviral activity against HBV; assay type: functional, organism-based
Herpesviridae sp. [6] = assay: Antiviral activity against HSV; assay type: functional, organism-based
Herpesviridae sp. [7] = assay: Potency index, ratio of tenofovir EC50 to compound EC50 for antiviral activity against HSV; assay type: functional
[8] = target: T1, Human immunodeficiency virus type 1 reverse transcriptase; assay: Inhibition of HIV1 3B reverse transcriptase using polyC/oligo(dG12) as template/primer in presence of [3H]dGTP and calf thymus DNA after 30 mins
[9] = target: Human immunodeficiency virus type 1 reverse transcriptase (Human immunodeficiency virus 1, UniProt Q72547, E138K); assay: Inhibition of TSAO resistant HIV1 3B reverse transcriptase E138K mutant using polyC/oligo(dG12) as template/primer in presence of [3H]dGTP and calf thymus DNA after 30 mins
[10] = tested on: Human immunodeficiency virus 1; assay: Antiviral activity against HIV1 infected in human CEM cells assessed as reduction in giant cell formation by microscopic method; assay type: functional, organism-based; settings: Human immunodeficiency virus 1, CCRF-CEM
[11] = Half life of the compound in PBS by HPLC analysis; assay type: physicochemical
[12] = tested on: Human immunodeficiency virus 1; assay: Antiviral activity against PFA-resistant HIV1 harboring RT W88G mutant infected in human P4/R5 cells after 48 hrs by beta-galactosidase reporter gene assay; assay type: functional, organism-based; settings: Human immunodeficiency virus 1, P4/R5, 48 h
[13] = tested on: Human immunodeficiency virus 1; assay: Antiviral activity against HIV1 3B infected in human CEM/0 after 4 days by microscopic method; assay type: functional, organism-based; settings: Human immunodeficiency virus 1, 3B, CCRF-CEM, 96 h
[14] = Stability in culture medium containing 10% FBS at 100 uM after 72 hrs by HPLC analysis; assay type: ADME; settings: cattle, read-out: Stability
[15] = tested on: Human immunodeficiency virus 2; assay: Antiviral activity against HIV2; assay type: functional, organism-based
[16] = tested on: Moloney murine sarcoma virus; assay: Antiviral activity against MSV; assay type: functional, organism-based
Human alphaherpesvirus 3 = assay: Antiviral activity against VZV; assay type: functional, organism-based
[17] = tested on: Human immunodeficiency virus 1; assay: Antiviral activity against HIV1 3B infected in human MT4 cells by MTT assay; assay type: functional, organism-based; settings: Human immunodeficiency virus 1, 3B
[18] = tested on: Human immunodeficiency virus 1; assay: Antiviral activity against HIV1 3B infected in human PBMC after 5 days by MTT assay; assay type: functional, organism-based; settings: Human immunodeficiency virus 1, 3B, 120 h
[19] = tested on: Human immunodeficiency virus 1; assay: Antiviral activity against HIV1 Lai infected in human CEM-SS cells after 5 days by MTT assay; assay type: functional, organism-based; settings: Human immunodeficiency virus 1, M:B_Lai, 120 h
[20] = tested on: Human immunodeficiency virus 2; assay: Antiviral activity against HIV2 D194 infected in human PBMC after 5 days by MTT assay; assay type: functional, organism-based, Human immunodeficiency virus type 2 (ISOLATE D194); settings: Human immunodeficiency virus 2, 120 h
Gag-Pol polyprotein = Gag-Pol polyprotein (Human immunodeficiency virus type 1 group M subtype B (isolate HXB2)(HIV-1), UniProt P04585); assay: Inhibition of HIV1 reverse transcriptase polymerase; set-up: species or system Human immunodeficiency virus 1
[21] = target: T1, Human immunodeficiency virus type 1 reverse transcriptase; assay: Inhibition of HIV1 reverse transcriptase RNase H

COc1ccc2ccccc2c1/C=N/NC(=O)c1ccc(O)c(O)c1
pIC50 [1]: 6.30 | pIC50 [2]: < 4.60

CCc1c(Sc2cc(C)cc(C)c2)n(COCCO)c(=O)[nH]c1=O
pEC50 [3]: 8.15

CC(C)(C)NC(=O)[C@H]1N(C(=O)[C@@H](O)[C@H](Cc2ccccc2)NC(=O)CC(C)(C)C(=O)O)CSC1(C)C
pEC50 [4]: 7.28

Cc1cccc(C)c1OCC(=O)N[C@@H](Cc1ccccc1)[C@H](O)C(=O)N1CSC(C)(C)[C@H]1C(=O)NC(C)(C)C
pEC50 [5]: 7.04

Nc1cc(OCCOCP(=O)(O)O)nc(N)n1
EC50 [4]: 0.8 µg/mL | pEC50 (Hepatitis B virus): 6.52 | EC50 (Herpesviridae sp. [6]): 6.3 µg/mL (≈ 23.8 µM) | Ratio EC50 (Herpesviridae sp. [7]): 20

CCOC(=O)P(=O)(O)OCCCn1c(=O)c(C)cn([C@@H]2O[C@H](CO[Si](C)(C)C(C)(C)C)[C@@]3(OS(=O)(=O)C=C3N)[C@H]2O[Si](C)(C)C(C)(C)C)c1=O
pIC50 [8]: 4.96 to 5.43 | pIC50 [9]: 3.37 to 3.53 | pEC50 [10]: 5.35 to 7.10 | half-life [11]: 30 min

COC(=O)P(=O)([O-])OCCCn1c(=O)c(C)cn([C@@H]2O[C@H](CO[Si](C)(C)C(C)(C)C)[C@@]3(OS(=O)(=O)C=C3N)[C@H]2O[Si](C)(C)C(C)(C)C)c1=O.[Na+]
pIC50 [8]: 4.96 to 5.43 | pIC50 [9]: 3.37 to 3.53 | pEC50 [10]: 5.35 to 7.10 | half-life [11]: 30 min

Cc1cn([C@@H]2O[C@H](CO[Si](C)(C)C(C)(C)C)[C@@]3(OS(=O)(=O)C=C3N)[C@H]2O[Si](C)(C)C(C)(C)C)c(=O)n(CCCOP(=O)(O)C(=O)O)c1=O
pIC50 [8]: 4.96 to 5.43 | pIC50 [9]: 3.37 to 3.53 | pEC50 [10]: 5.35 to 7.10 | pEC50 [12]: 6.80 | half-life [11]: 30 min

Cc1cn([C@@H]2O[C@H](CO[Si](C)(C)C(C)(C)C)[C@@]3(OS(=O)(=O)C=C3N)[C@H]2O[Si](C)(C)C(C)(C)C)c(=O)n(CCCOP(=O)(O)C(=O)OCc2ccccc2)c1=O
pIC50 [8]: 4.96 to 5.43 | pIC50 [9]: 3.37 to 3.53 | pEC50 [10]: 5.35 to 7.10 | half-life [11]: 30 min

COC(=O)P(=O)(OC)OCCCn1c(=O)c(C)cn([C@@H]2O[C@H](CO[Si](C)(C)C(C)(C)C)[C@@]3(OS(=O)(=O)C=C3N)[C@H]2O[Si](C)(C)C(C)(C)C)c1=O (stereo partly specified)
pEC50 [10]: 5.35 to 7.10 | half-life [11]: 30 min

Cc1cn([C@@H]2O[C@H](CO[Si](C)(C)C(C)(C)C)[C@@]3(OS(=O)(=O)C=C3N)[C@H]2O[Si](C)(C)C(C)(C)C)c(=O)n(CCCn2c(=O)c(C)cn([C@H]3C[C@H](N=[N+]=[N-])[C@@H](CO)O3)c2=O)c1=O
pEC50 [13]: 7.05

Cc1cn([C@@H]2O[C@H](CO[Si](C)(C)C(C)(C)C)[C@@]3(OS(=O)(=O)C=C3N)[C@H]2O[Si](C)(C)C(C)(C)C)c(=O)n(CCCO)c1=O
pEC50 [10]: 7.00

Cc1cn([C@H]2C=C[C@@H](COC(=O)OC[C@H]3O[C@@H](n4cc(C)c(=O)[nH]c4=O)C[C@@H]3N=[N+]=[N-])O2)c(=O)[nH]c1=O
pEC50 [4]: 8.22

NC(=O)c1ncn([C@@H]2O[C@H](COP(=O)(O)OC[C@@H]3CC[C@H](n4cnc5c(=O)[nH]cnc54)O3)[C@@H](O)[C@H]2O)n1
remaining at 72 h, 100 µM [14]: 44%

Nc1nc(N)nc(OCCOCP(=O)(O)O)n1
pEC50 [4]: 5.62 | pEC50 (Hepatitis B virus): 5.51 | pEC50 [15]: 5.43 | pEC50 [16]: 6.46 | pEC50 (Human alphaherpesvirus 3): 5.51

CCc1c(Sc2cc(C)cc(C)c2)n(CCCCC(=O)NCCCCCCCCCCCCNc2ccn([C@H]3CC[C@@H](CO)O3)c(=O)n2)c(=O)[nH]c1=O
pEC50 [17]: 6.35 | pEC50 [18]: 6.35 | pEC50 [19]: 6.35 | pEC50 [20]: 6.35

Cc1cn([C@H]2C=C[C@@H](COC(=O)OC[C@@H]3C=C[C@H](n4cc(C)c(=O)[nH]c4=O)O3)O2)c(=O)[nH]c1=O
pEC50 [4]: 6.62

Cc1cn([C@H]2C[C@H](N=[N+]=[N-])[C@@H](COC(=O)NCCCCNC(=O)OC[C@H]3O[C@@H](n4cc(C)c(=O)[nH]c4=O)C[C@@H]3N=[N+]=[N-])O2)c(=O)[nH]c1=O
pEC50 [4]: 4.59

Cc1cn([C@H]2C=C[C@@H](COC(=O)NCCCCNC(=O)OC[C@H]3O[C@@H](n4cc(C)c(=O)[nH]c4=O)C[C@@H]3N=[N+]=[N-])O2)c(=O)[nH]c1=O
pEC50 [4]: 4.02

COc1ccc2ccccc2c1/C=N/NC(=O)c1ccc(-c2ccccc2)cc1
pIC50 [1]: 5.30 | pIC50 [2]: 6.30

O=C(Oc1ccc2c(c1OC(=O)c1ccccc1)C(=O)c1ccccc1C2=O)c1ccccc1
pIC50 (Gag-Pol polyprotein): 4.92 | pIC50 [21]: 4.89

Cc1cn([C@H]2C[C@H](N=[N+]=[N-])[C@@H](COP(=O)(O)OC[C@H]3O[C@@H](n4cnc(C(N)=O)n4)[C@H](O)[C@@H]3O)O2)c(=O)[nH]c1=O
remaining at 72 h, 100 µM [14]: 36%

Cc1cn([C@H]2C[C@H](N=[N+]=[N-])[C@@H](COC(=O)OC[C@H]3O[C@@H](n4cc(C)c(=O)[nH]c4=O)C[C@@H]3N=[N+]=[N-])O2)c(=O)[nH]c1=O
pEC50 [4]: 8.70

COc1ccc2ccccc2c1/C=N/NC(=O)c1ccc(Oc2ccccc2)cc1
pIC50 [1]: 5.15 | pIC50 [2]: 6.40

Cc1cn([C@H]2C[C@H](N=[N+]=[N-])[C@@H](COP(=O)(OC[C@@H]3CC[C@H](n4cnc5c(=O)[nH]cnc54)O3)OC[C@@H]3CC[C@H](n4cnc5c(=O)[nH]cnc54)O3)O2)c(=O)[nH]c1=O
pEC50 [3]: 6.78

Cc1cccc(C)c1OCC(=O)N[C@@H](Cc1ccccc1)[C@H](OC(=O)CCCC(=O)NCC(=O)OC[C@H]1O[C@@H](n2cc(C)c(=O)[nH]c2=O)C[C@@H]1N=[N+]=[N-])C(=O)N1CSC(C)(C)[C@H]1C(=O)NC(C)(C)C
pEC50 [5]: 10.00

Cc1cn([C@H]2C[C@H](N=[N+]=[N-])[C@@H](COP(=O)(O)OC[C@@H]3CC[C@H](n4cnc5c(=O)[nH]cnc54)O3)O2)c(=O)[nH]c1=O
pEC50 [3]: 8.70 | remaining at 72 h, 100 µM [14]: 57%

Cc1cn([C@H]2C=C[C@@H](COC(=O)OCc3ccc(NC(=O)/C(O)=C/C(=O)c4cc(OCc5ccccc5)cc(OCc5ccccc5)c4)cc3)O2)c(=O)[nH]c1=O (stereo in doubt)
pEC50 [4]: 6.37

Nc1ncnc2c1ncn2CCOCP(=O)(O)O [ADEFOVIR]
pEC50 [4]: 5.70 | pIC50 (Hepatitis B virus): 6.15

O=C1c2ccccc2C(=O)c2c1ccc(O)c2O [ATHRAQUINONES A]
pIC50 (Gag-Pol polyprotein): 4.10 | pIC50 [21]: < 4.00

O=c1[nH]cnc2c1ncn2[C@H]1CC[C@@H](CO)O1 [DIDANOSINE]
pEC50 [3]: 4.88

C[C@H](Cn1cnc2c(N)ncnc21)OCP(=O)(O)O [TENOFOVIR ANHYDROUS]
EC50 (Herpesviridae sp. [6]): 105 µg/mL (≈ 366 µM)

Cc1cn([C@H]2C[C@H](N=[N+]=[N-])[C@@H](CO)O2)c(=O)[nH]c1=O [ZIDOVUDINE]
pEC50 [3]: 8.70 | pEC50 [4]: 6.90 | pEC50 [5]: 8.21
